Source: patent US20240358692A1, “TREATMENT OF SCLERODERMA” (Aisa Pharma, Inc., priority 2023, published 2024)

Legend:
participants with SSc-RP [1] = assay: SHAQ - Visual Analog Scale - Overall Disease Severity; format: in vivo, human; settings: tadalafil 5 mg
Excerpt: (§1) The standard, validated, patient reported outcome measures tool for SSc patients, the Scleroderma Health Assessment Questionnaire (SHAQ), will be used to assess the participant qualify of life. Details are attached in the Appendix. The participant quality of life will be scored, and a disability index calculated for each questionnaire completed by the patient at Screening and each in-clinic visit. The absolute change in participant quality of life from baseline to the end of each dosing period will be calculated similar to frequency data as before.
(§2) The standard, validated, patient reported outcome measures tool for SSc patients, the SHAQ, was collected at the time points specified in the study schedules (FIG. 2 and FIGS. 4A and 4B) to assess the participant's quality of life. The SHAQ included a Raynaud's VAS that will also be reported separately.

participants with SSc-RP [2] = assay: SHAQ - Visual Analog Scale - Finger Ulcers; format: in vivo, human
Excerpt: as §1, §2

[3] = Tadalafil 5 mg (N = 5), Day 12, PP Population, Part A

CN1CC(=O)N2[C@H](c3ccc4c(c3)OCO4)c3[nH]c4ccccc4c3C[C@@H]2C1=O [Tadalafil]
VAS Overall Severity Change from Baseline Max (participants with SSc-RP [1]): 2.40 | VAS Overall Severity Change from Baseline Median (participants with SSc-RP [1]): 0.700 | VAS Overall Severity Change from Baseline Min (participants with SSc-RP [1]): −1.30 | VAS Overall Severity Change from Baseline Q1 (participants with SSc-RP [1]): −0.600 | VAS Overall Severity Change from Baseline Q3 (participants with SSc-RP [1]): 1.850 | VAS Overall Severity Day 12 Max (participants with SSc-RP [1]): 9.10 | VAS Overall Severity Day 12 Mean (participants with SSc-RP [1]): 5.600 | VAS Overall Severity Day 12 Min (participants with SSc-RP [1]): 0.20 | VAS Overall Severity Day 12 Q1 (participants with SSc-RP [1]): 2.200 | VAS Overall Severity Day 12 Q3 (participants with SSc-RP [1]): 9.000 | VAS Overall Severity Percent Change from Baseline Max (participants with SSc-RP [1]): 100.0% | VAS Overall Severity Percent Change from Baseline Min (participants with SSc-RP [1]): −23.6% | VAS Overall Severity Percent Change from Baseline Q1 (participants with SSc-RP [1]): −3.48% | VAS Overall Severity Percent Change from Baseline Q3 (participants with SSc-RP [1]): 68.46% | SHAQ Visual Analogue Scale - Finger Ulcers, Change from Baseline, Mean (participants with SSc-RP [2]; [3]): 0.250 | SHAQ Visual Analogue Scale - Finger Ulcers, Change from Baseline, Median (participants with SSc-RP [2]; [3]): 0.000 | SHAQ Visual Analogue Scale - Finger Ulcers, Percent Change from Baseline, Mean (participants with SSc-RP [2]; [3]): 6.10% | SHAQ Visual Analogue Scale - Finger Ulcers, Percent Change from Baseline, Median (participants with SSc-RP [2]; [3]): 6.10% | VAS Finger Ulcers Change from Baseline Max (participants with SSc-RP [2]; tadalafil 5 mg): 1.00 | VAS Finger Ulcers Change from Baseline Mean (participants with SSc-RP [2]; tadalafil 5 mg): 0.250 | VAS Finger Ulcers Change from Baseline Median (participants with SSc-RP [2]; tadalafil 5 mg): 0.000 | VAS Finger Ulcers Change from Baseline Min (participants with SSc-RP [2]; tadalafil 5 mg): 0.00 | VAS Finger Ulcers Change from Baseline Q1 (participants with SSc-RP [2]; tadalafil 5 mg): 0.000 | VAS Finger Ulcers Change from Baseline Q3 (participants with SSc-RP [2]; tadalafil 5 mg): 0.500 | VAS Finger Ulcers Day 12 Max (participants with SSc-RP [2]; tadalafil 5 mg): 9.20 | VAS Finger Ulcers Day 12 Median (participants with SSc-RP [2]; tadalafil 5 mg): 0.050 | VAS Finger Ulcers Day 12 Min (participants with SSc-RP [2]; tadalafil 5 mg): 0.00 | VAS Finger Ulcers Day 12 Q1 (participants with SSc-RP [2]; tadalafil 5 mg): 0.000 | VAS Finger Ulcers Day 12 Q3 (participants with SSc-RP [2]; tadalafil 5 mg): 4.650 | VAS Finger Ulcers Percent Change from Baseline Max (participants with SSc-RP [2]; tadalafil 5 mg): 12.2% | VAS Finger Ulcers Percent Change from Baseline Mean (participants with SSc-RP [2]; tadalafil 5 mg): 6.10% | VAS Finger Ulcers Percent Change from Baseline Median (participants with SSc-RP [2]; tadalafil 5 mg): 6.10% | VAS Finger Ulcers Percent Change from Baseline Min (participants with SSc-RP [2]; tadalafil 5 mg): 0.0% | VAS Finger Ulcers Percent Change from Baseline Q1 (participants with SSc-RP [2]; tadalafil 5 mg): 0.00% | VAS Finger Ulcers Percent Change from Baseline Q3 (participants with SSc-RP [2]; tadalafil 5 mg): 12.20%
